In patent EP4786468A1, “CRYSTALLINE FORM OF HDAC6 INHIBITOR AND PREPARATION METHOD THEREFOR” (Suzhou Genhouse Bio Co., Ltd., priority 2023, dated 2025):
Values after ≈ are worked out from the molar mass of the structure shown.

Experiments:
HDAC1 = target: T1, HDAC1 (Homo sapiens, UniProt Q13547); assay: HDAC subtype enzyme activity assay; type: biochemical; conditions: read-out: HDAC1 Inhibition Rate/%
T1 construct: purchased BPS
From the text: (§7) The IC50 was obtained by fitting with GraphPad Prism 7.0 software.

[1] = Phase I metabolic stability in liver microsomes; type: in vitro ADME, beagle dogs; conditions: DLM
Procedure: (§1) Evaluation of the Phase I metabolic stability of the test compound in liver microsomes from CD-1 mice (MLM), Sprague-Dawley rats (RLM), beagle dogs (DLM), cynomolgus monkeys (CLM), and humans (HLM).
(§2) The animal and human liver microsomes used in this test system were purchased from Xenotech, Corning, or other qualified suppliers and stored in a freezer below -60°C before use.
(§3) The test and control compounds were incubated with animal and human liver microsomes at 37±1°C for a certain period, with a maximum incubation time of 60 minutes. Samples were taken at specified time points, and the reaction was terminated with acetonitrile or other organic solvents containing an internal standard. After centrifugation, the resulting supernatant was analyzed using liquid chromatography-tandem mass spectrometry (LC-MS/MS).
(§4) 73.21 g of dipotassium hydrogen phosphate trihydrate and 10.78 g of potassium dihydrogen phosphate were dissolved in 4000 mL of ultrapure water. The pH of the solution was adjusted to 7.40±0.10 using 10% phosphoric acid or 1 M potassium hydroxide, with a final concentration of 100 mM. […]
(§5) Sample analysis was performed using liquid chromatography-tandem mass spectrometry (LC-MS/MS), without calibration curves and quality control samples. Semi-quantitative determination was performed using the ratio of the analyte peak area to the internal standard peak area. […]

[2] = Mouse pharmacokinetic test (IV and PO); type: in vivo; conditions: BALB/c mice
Procedure: This experimental example tested the pharmacokinetic behavior of the compound in BALB/c mice after intravenous (IV) and oral (PO) administration.
The actual body weight of the mice was measured on the day of dosing and the dose volume was calculated. Each group consisted of 3 mice. The compound was tested in two groups: one group received a single intravenous injection, and the other group received a single oral gavage. Whole blood samples were collected via orbital bleeding at specified time points (0.25, 0.5, 1, 2, 4, 8, 24h post-dose). After blood collection, samples were immediately transferred to labeled commercial tubes containing K2-EDTA (0.85-1.15 mg), then centrifuged (3200 x g, 4°C, 10 minutes) to obtain plasma. The plasma was transferred to pre-cooled centrifuge tubes, flash-frozen on dry ice, and stored in an ultra-low temperature freezer at -60°C or lower until LC-MS/MS analysis.
Plasma concentrations were determined using an LC-MS/MS method. […] Relevant pharmacokinetic parameters were calculated using the linear log trapezoidal method. Table 9: Mouse Pharmacokinetic Test Experimental Data

[3] = Phase I metabolic stability in liver microsomes; type: in vitro ADME, humans; conditions: HLM
Procedure: as §1, §2, §3, §4, §5

[4] = Phase I metabolic stability in liver microsomes; type: in vitro ADME, cynomolgus monkeys; conditions: CLM
Procedure: as §1, §2, §3, §4, §5

[5] = Phase I metabolic stability in liver microsomes; type: in vitro ADME, Sprague-Dawley rats; conditions: RLM
Procedure: as §1, §2, §3, §4, §5

HDAC6 = target: T2, HDAC6 (Homo sapiens, UniProt Q9UBN7); assay: HDAC6 enzyme activity assay (fluorogenic substrate Ac-GAK(Ac)-AMC); type: biochemical; conditions: HDAC6 (Abcam), 20 µM substrate, 37°C 30 min
T2 construct: purchased Abcam
T2 sequence (Q9UBN7 1-1215): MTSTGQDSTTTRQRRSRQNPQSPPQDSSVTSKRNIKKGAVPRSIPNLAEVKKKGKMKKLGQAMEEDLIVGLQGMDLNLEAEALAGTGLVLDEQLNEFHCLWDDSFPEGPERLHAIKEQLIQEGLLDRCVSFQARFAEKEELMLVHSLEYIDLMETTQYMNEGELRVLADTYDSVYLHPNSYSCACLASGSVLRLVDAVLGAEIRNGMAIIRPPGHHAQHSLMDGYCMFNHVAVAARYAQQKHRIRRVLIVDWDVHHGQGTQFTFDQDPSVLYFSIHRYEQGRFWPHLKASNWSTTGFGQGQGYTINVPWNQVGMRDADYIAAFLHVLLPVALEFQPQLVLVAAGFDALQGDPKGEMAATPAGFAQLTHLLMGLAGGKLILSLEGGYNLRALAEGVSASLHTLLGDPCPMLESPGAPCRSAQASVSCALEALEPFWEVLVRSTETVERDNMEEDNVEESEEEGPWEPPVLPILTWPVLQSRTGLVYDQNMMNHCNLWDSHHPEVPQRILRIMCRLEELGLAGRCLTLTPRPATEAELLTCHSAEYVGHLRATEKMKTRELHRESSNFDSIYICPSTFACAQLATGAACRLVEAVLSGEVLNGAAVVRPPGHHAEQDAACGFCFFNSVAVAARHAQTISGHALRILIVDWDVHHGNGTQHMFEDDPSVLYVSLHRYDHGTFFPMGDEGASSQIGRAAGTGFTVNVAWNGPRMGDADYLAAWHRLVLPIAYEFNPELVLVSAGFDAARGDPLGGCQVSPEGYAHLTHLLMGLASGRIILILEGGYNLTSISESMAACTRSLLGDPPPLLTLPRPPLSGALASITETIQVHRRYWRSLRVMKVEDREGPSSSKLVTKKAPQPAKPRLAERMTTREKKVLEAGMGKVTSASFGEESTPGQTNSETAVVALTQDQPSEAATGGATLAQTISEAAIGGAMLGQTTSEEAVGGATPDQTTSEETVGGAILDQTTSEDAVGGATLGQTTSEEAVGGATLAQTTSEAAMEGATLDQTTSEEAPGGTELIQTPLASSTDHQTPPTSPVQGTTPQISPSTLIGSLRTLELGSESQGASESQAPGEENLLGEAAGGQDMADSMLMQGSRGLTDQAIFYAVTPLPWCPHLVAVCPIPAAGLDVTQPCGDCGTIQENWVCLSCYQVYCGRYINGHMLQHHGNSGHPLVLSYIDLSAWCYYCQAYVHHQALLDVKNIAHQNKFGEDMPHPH
From the text: as §7

[6] = Phase I metabolic stability in liver microsomes; type: in vitro ADME, CD-1 mice; conditions: MLM
Procedure: as §1, §2, §3, §4, §5

[7] = Mouse brain-to-plasma drug concentration ratio; type: in vivo, mice
Procedure: The actual body weight of the mice was measured on the day of dosing and the dose volume was calculated. Each group consisted of 9 mice. The compound was administered as a single intravenous (IV) injection or a single oral gavage (PO). Whole blood samples were collected via orbital bleeding at specified time points. After blood collection, samples were immediately transferred to labeled commercial tubes containing K2-EDTA (0.85-1.15 mg), then centrifuged (3200 x g, 4°C, 10 minutes) to obtain plasma. The plasma was transferred to pre-cooled centrifuge tubes, flash-frozen on dry ice, and stored in an ultra-low temperature freezer at -60°C or lower until LC-MS/MS analysis. 20 µL of plasma sample or brain tissue homogenate was added to 80 µL of internal standard solution (50 ng/mL propafenone in acetonitrile). The plate was sealed at 165 °C using a plate sealer, vortexed for 10 min on a microplate shaker (maximum speed), and centrifuged at 4000 rpm for 20 min using a low-speed benchtop centrifuge. 10 µL of the supernatant was transferred and mixed with 90 µL of acetonitrile. After vortex mixing, the plate was sealed at 165 °C, vortexed again, and 1 µL of the supernatant was taken for LC-MS/MS analysis. The plasma concentration data of the compound were processed using a non-compartmental model with WinNonlin Version 6.3 (Pharsight, Mountain View, CA) pharmacokinetic software. Relevant pharmacokinetic parameters were calculated using the linear log trapezoidal method.

[8] = Solubility in water (HPLC); type: physicochemical; conditions: H2O, 37°C
Procedure: (§6) The vial was stirred and observed in a 37°C water bath. If the sample dissolved completely, more sample was added until undissolved material remained after rotary mixing. The sample vial was sealed and stirred in a 37°C water bath for 24h, then centrifuged. The supernatant was filtered and the solubility was measured by HPLC.

[9] = Dynamic solubility in biorelevant media (HPLC); type: physicochemical; conditions: 37°C
Procedure: FaSSGF (Fasted State Simulated Gastric Fluid), FeSSGF (Fed State Simulated Gastric Fluid), FaSSIF (Fasted State Simulated Intestinal Fluid), and FeSSIF (Fed State Simulated Intestinal Fluid) are biorelevant media. These media better reflect the impact of the gastrointestinal physiological environment on drug release. Solubility tested in these media is closer to solubility in the human body environment.
as §6, with “HPLC. Table 13: Dynamic Solubility of Crystal Forms in Biorelevant Media” for “HPLC.”

[10] = Stability of the crystal form under accelerated conditions (XRPD, HPLC); type: physicochemical; conditions: for % Area: chemical stability
Procedure: Solid samples separated under different conditions were evaluated for physical stability via XRPD testing for crystalline form and for chemical stability via HPLC testing for purity.
Appropriate amounts of crystal form I samples were taken and subjected to a stability experiment under accelerated conditions of 40 °C/75%RH/open/1 month. Physical stability was evaluated by XRPD testing. Table 14: Stability of crystal form I

[11] = 60 min, buffer instead of NADPH regeneration system
[12] = 60 min with NADPH regeneration system

T1 sequence (Q13547 whole entry, species assumed): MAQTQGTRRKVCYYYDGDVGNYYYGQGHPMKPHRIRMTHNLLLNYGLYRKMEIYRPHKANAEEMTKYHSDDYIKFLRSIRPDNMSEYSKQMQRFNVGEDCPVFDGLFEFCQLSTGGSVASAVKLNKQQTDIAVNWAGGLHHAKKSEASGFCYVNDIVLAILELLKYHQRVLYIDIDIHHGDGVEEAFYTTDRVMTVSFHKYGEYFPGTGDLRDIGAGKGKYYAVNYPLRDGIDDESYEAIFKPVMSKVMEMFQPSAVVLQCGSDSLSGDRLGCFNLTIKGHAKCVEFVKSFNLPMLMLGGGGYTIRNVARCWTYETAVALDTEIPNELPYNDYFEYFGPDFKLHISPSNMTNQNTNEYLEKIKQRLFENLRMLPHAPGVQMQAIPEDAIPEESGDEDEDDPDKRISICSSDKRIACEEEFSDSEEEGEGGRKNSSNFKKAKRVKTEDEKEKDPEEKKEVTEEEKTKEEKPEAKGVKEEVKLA

O=C(N[C@@H]1CCCC[C@H]1N1Cc2ccc(-c3nnc(C(F)F)o3)cc2S1(=O)=O)C(F)F [I]
inhibition at 1 µM (HDAC1): -11.9% | inhibition at 10 µM (HDAC1): -3.91% | Remaining Rate (NCF=60 min) [1, 11]: 90.9% | Remaining Rate (T=60 min) [1, 12]: 85.8% | CLz ([2]; IV@2mg/kg): 6 mL/min/kg | t1/2z ([2]; IV@2mg/kg): 60.6 min | F ([2]; PO@10mg/kg): 123.92% | t1/2z ([2]; PO@10mg/kg): 97.2 min | F ([2]; PO@30mg/kg): 96.93% | t1/2z ([2]; PO@30mg/kg): 52.2 min | F ([2]; PO@100mg/kg): 95.71% | t1/2z ([2]; PO@100mg/kg): 48.6 min | Remaining Rate (NCF=60 min) [3, 11]: 97.3% | Remaining Rate (T=60 min) [3, 12]: 86.1% | Remaining Rate (NCF=60 min) [4, 11]: 101.5% | Remaining Rate (T=60 min) [4, 12]: 88.8% | Remaining Rate (NCF=60 min) [5, 11]: 93.0% | Remaining Rate (T=60 min) [5, 12]: 76.4% | IC50 (HDAC6): 5.7 nM | Remaining Rate (NCF=60 min) [6, 11]: 99.8% | Remaining Rate (T=60 min) [6, 12]: 84.8% | Brain Drug Concentration ([7]; 2 mg/kg IV, 1 h): 268 ng/mL | Plasma Drug Concentration ([7]; 2 mg/kg IV, 1 h): 1090 ng/mL | Brain Drug Concentration ([7]; 2 mg/kg IV, 4 h): 149 ng/mL | Plasma Drug Concentration ([7]; 2 mg/kg IV, 4 h): 595 ng/mL | Brain Drug Concentration ([7]; 10mg/kg PO, 1 h): 882 ng/mL | Plasma Drug Concentration ([7]; 10mg/kg PO, 1 h): 4993 ng/mL | Brain Drug Concentration ([7]; 10mg/kg PO, 4 h): 435 ng/mL | Plasma Drug Concentration ([7]; 10mg/kg PO, 4 h): 2833 ng/mL

O=C(N[C@@H]1CCCC[C@H]1N1Cc2ccc(-c3nnc(C(F)F)o3)cc2S1(=O)=O)C(F)F [Crystal Form I]
solubility at 24 h [8]: 49.8 µg/mL (≈ 108 µM) | solubility at 1 h ([9]; FaSSGF): 34.5 µg/mL (≈ 74.6 µM) | solubility at 24 h ([9]; FaSSGF): 51.9 µg/mL (≈ 112 µM) | solubility at 24 h ([9]; FaSSIF): 96.2 µg/mL (≈ 208 µM) | solubility at 1 h ([9]; FeSSGF): 45.5 µg/mL (≈ 98.4 µM) | solubility at 24 h ([9]; FeSSGF): 55 µg/mL (≈ 119 µM) | solubility at 24 h ([9]; FeSSIF): 87.5 µg/mL (≈ 189 µM) | XRPD characteristic peaks (physical stability) ([10]; 40 °C/75%RH/open/1 month): remained unchanged | % Area ([10]; 40 °C/75%RH/open/1 month, HPLC peak of Compound of formula (I)): 99.51 % Area | % Area ([10]; T0, HPLC peak of Compound of formula (I)): 99.51 % Area
